# Measured values: PubChem BioAssay AID330 (DTP/NCI, 2004)
# Inconclusive results and toxic doses are left out.
# System: P388 leukemia ip, CD2F1 mice, survival T/C
# Assay: NCI In Vivo Anticancer Drug Screen. Data for tumor model P388 Leukemia (intraperitoneal) in CD2F1 (CDF1) mice
# Settings: endpoint: median survival time, higher = longer survival
# In short: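 Mice carrying the transplanted tumor received test compound or vehicle. Survival was recorded in each group, and the value is the treated-group measurement divided by that of the vehicle-treated control group.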
# [1] = dose: 50.0 mg/kg/injection, schedule: Q01DX005 (ip), vehicle: saline with Tween-80
# [2] = dose: 25.0 mg/kg/injection, schedule: Q01DX005 (ip), vehicle: saline with Tween-80
compound,measurement,setting,value
O=C1N/C(=N/OCc2ccccc2)C(F)C(NOCc2ccccc2)N1 (centres undefined),T/C,"dose: 50.0 mg/kg/injection, schedule: Q01DX009 (ip), vehicle: Klucel (hydroxypropylcellulose) (HPC)",96 % of control
same,T/C,"dose: 100.0 mg/kg/injection, schedule: Q01DX009 (ip), vehicle: Klucel (hydroxypropylcellulose) (HPC)",101 % of control
same,T/C,"dose: 200.0 mg/kg/injection, schedule: Q01DX009 (ip), vehicle: Klucel (hydroxypropylcellulose) (HPC)",97 % of control
CCOC(=O)c1ccc(NC(=O)Nc2ncc(Cl)cc2Cl)cc1,T/C,"dose: 50.0 mg/kg/injection, schedule: Q01DX009 (ip), vehicle: saline with Tween-80",89 % of control
same,T/C,"dose: 100.0 mg/kg/injection, schedule: Q01DX009 (ip), vehicle: saline with Tween-80",86 % of control
same,T/C,"dose: 200.0 mg/kg/injection, schedule: Q01DX009 (ip), vehicle: saline with Tween-80",94 % of control
CCCC(C)N(CCCNc1cc(OC)cc2cccnc12)CC(C)C (centres undefined),T/C,"dose: 12.5 mg/kg/injection, schedule: Q01DX005 (ip), vehicle: saline",100 % of control
same,T/C,"dose: 25.0 mg/kg/injection, schedule: Q01DX005 (ip), vehicle: saline",107 % of control
same,T/C,[1],96 % of control
same,T/C,"dose: 50.0 mg/kg/injection, schedule: Q01DX005 (ip), vehicle: saline",94 % of control
CC1CCCN(CCSSCCN2CCCC(C)C2)C1 (centres undefined),T/C,"dose: 12.5 mg/kg/injection, schedule: Q01DX009 (ip), vehicle: saline",109 % of control
same,T/C,"dose: 25.0 mg/kg/injection, schedule: Q01DX009 (ip), vehicle: saline",113 % of control
same,T/C,"dose: 50.0 mg/kg/injection, schedule: Q01DX009 (ip), vehicle: saline",113 % of control
CCOC(=O)c1c(N)[nH]c(SSc2[nH]c(N)c(C(=O)OCC)c2C(=O)OCC)c1C(=O)OCC,T/C,"dose: 75.0 mg/kg/injection, schedule: Q01DX009 (ip), vehicle: saline",118 % of control
same,T/C,"dose: 300.0 mg/kg/injection, schedule: Q01DX009 (ip), vehicle: saline",100 % of control
CCCCN(CCCC)c1ccc(C(=NC(C)CCCN(CC)CC)c2ccc(N(C)C)cc2)cc1 (centres undefined),T/C,"dose: 6.25 mg/kg/injection, schedule: Q01DX005 (ip), vehicle: saline with Tween-80",107 % of control
same,T/C,"dose: 12.5 mg/kg/injection, schedule: Q01DX005 (ip), vehicle: saline with Tween-80",98 % of control
same,T/C,[2],100 % of control
CC(C)C12CCC3(C)CCC1(C)CCC32O (centres undefined),T/C,"dose: 12.0 mg/kg/injection, schedule: Q01DX009 (ip), vehicle: Klucel (hydroxypropylcellulose) (HPC)",111 % of control
same,T/C,"dose: 24.0 mg/kg/injection, schedule: Q01DX009 (ip), vehicle: Klucel (hydroxypropylcellulose) (HPC)",96 % of control
same,T/C,"dose: 48.0 mg/kg/injection, schedule: Q01DX009 (ip), vehicle: Klucel (hydroxypropylcellulose) (HPC)",96 % of control
same,T/C,"dose: 96.0 mg/kg/injection, schedule: Q01DX009 (ip), vehicle: Klucel (hydroxypropylcellulose) (HPC)",111 % of control
O=S(=O)(O)/[N+]([O-])=N/O,T/C,"dose: 100.0 mg/kg/injection, schedule: Q04DX003 (ip), vehicle: saline",100 % of control
same,T/C,"dose: 200.0 mg/kg/injection, schedule: Q04DX003 (ip), vehicle: saline",100 % of control
same,T/C,"dose: 400.0 mg/kg/injection, schedule: Q04DX003 (ip), vehicle: saline",100 % of control
CCCC1C2C=CC(C(S(=O)(=O)c3ccccc3)C2)N1C(=O)OCC (centres undefined),T/C,[2],100 % of control
same,T/C,[1],103 % of control
same,T/C,"dose: 100.0 mg/kg/injection, schedule: Q01DX005 (ip), vehicle: saline with Tween-80",102 % of control
same,T/C,"dose: 200.0 mg/kg/injection, schedule: Q01DX005 (ip), vehicle: saline with Tween-80",102 % of control
FC(F)(F)C1(C(F)(F)F)O[P+](c2ccccc2)(c2ccccc2)c2ccccc21,T/C,"dose: 50.0 mg/kg/injection, schedule: Q01DX005 (ip), vehicle: Klucel (hydroxypropylcellulose) (HPC)",100 % of control
same,T/C,"dose: 100.0 mg/kg/injection, schedule: Q01DX005 (ip), vehicle: Klucel (hydroxypropylcellulose) (HPC)",110 % of control
same,T/C,"dose: 200.0 mg/kg/injection, schedule: Q01DX005 (ip), vehicle: Klucel (hydroxypropylcellulose) (HPC)",102 % of control
COc1cc2c(c(OC(C)=O)c1OC)-c1ccc(OC)c(=O)cc1[C@@H](NC(C)=O)CC2,T/C,"dose: 1.25 mg/kg/injection, schedule: Q01DX009 (ip), vehicle: Klucel (hydroxypropylcellulose) (HPC)",94 % of control
same,T/C,"dose: 2.5 mg/kg/injection, schedule: Q01DX009 (ip), vehicle: Klucel (hydroxypropylcellulose) (HPC)",92 % of control
same,T/C,"dose: 5.0 mg/kg/injection, schedule: Q01DX009 (ip), vehicle: Klucel (hydroxypropylcellulose) (HPC)",100 % of control
same,T/C,"dose: 10.0 mg/kg/injection, schedule: Q01DX009 (ip), vehicle: Klucel (hydroxypropylcellulose) (HPC)",100 % of control
same,T/C,"dose: 20.0 mg/kg/injection, schedule: Q01DX009 (ip), vehicle: Klucel (hydroxypropylcellulose) (HPC)",109 % of control
CC([NH-])C[NH-].[Br][Pt+2][Br] (centres undefined),T/C,"dose: 12.5 mg/kg/injection, schedule: Q04DX002 (ip), vehicle: saline with Tween-80",158 % of control
same,T/C,"dose: 25.0 mg/kg/injection, schedule: Q04DX002 (ip), vehicle: saline with Tween-80",174 % of control
